Reference: ChEMBL document CHEMBL3580568, “Design and synthesis of close analogs of LCRF-0004, a potent and selective RON receptor tyrosine kinase inhibitor” (Bioorg Med Chem Lett, 2015)

Columns and labels:
[1] = target: Hepatocyte growth factor receptor (Homo sapiens, UniProt P08581); experiment: Inhibition of phosphorylation of c-Met in human MKN45 cells
[2] = target: T1, Macrophage-stimulating protein receptor (Homo sapiens, UniProt Q04912); experiment: Inhibition of RON (unknown origin) kinase domain by enzymatic assay
A549 = experiment: Antiproliferative activity against human A549 cells by MTT assay; format: functional, cell-based
MDA-MB-231 = experiment: Antiproliferative activity against human MDA-MB-231 cells by MTT assay; format: functional, cell-based
[3] = target: T1, Macrophage-stimulating protein receptor; experiment: Inhibition of RON phosphorylation in human PC3 cells; format: cell-based, PC-3
[4] = target: T1, Macrophage-stimulating protein receptor; experiment: Inhibition of RON phosphorylation in human HT29 cells; format: cell-based, HT-29

T1 sequence (Q04912 25-304 limits assumed): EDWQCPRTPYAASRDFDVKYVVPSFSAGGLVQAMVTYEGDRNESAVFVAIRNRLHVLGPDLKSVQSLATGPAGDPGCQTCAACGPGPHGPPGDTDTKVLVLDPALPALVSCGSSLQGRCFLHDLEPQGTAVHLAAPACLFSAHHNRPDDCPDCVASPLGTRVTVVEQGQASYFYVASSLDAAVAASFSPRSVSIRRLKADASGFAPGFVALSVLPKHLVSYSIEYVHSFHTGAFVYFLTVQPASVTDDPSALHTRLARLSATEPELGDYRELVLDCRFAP
T1 sequence (Q04912 310-1400 limits assumed): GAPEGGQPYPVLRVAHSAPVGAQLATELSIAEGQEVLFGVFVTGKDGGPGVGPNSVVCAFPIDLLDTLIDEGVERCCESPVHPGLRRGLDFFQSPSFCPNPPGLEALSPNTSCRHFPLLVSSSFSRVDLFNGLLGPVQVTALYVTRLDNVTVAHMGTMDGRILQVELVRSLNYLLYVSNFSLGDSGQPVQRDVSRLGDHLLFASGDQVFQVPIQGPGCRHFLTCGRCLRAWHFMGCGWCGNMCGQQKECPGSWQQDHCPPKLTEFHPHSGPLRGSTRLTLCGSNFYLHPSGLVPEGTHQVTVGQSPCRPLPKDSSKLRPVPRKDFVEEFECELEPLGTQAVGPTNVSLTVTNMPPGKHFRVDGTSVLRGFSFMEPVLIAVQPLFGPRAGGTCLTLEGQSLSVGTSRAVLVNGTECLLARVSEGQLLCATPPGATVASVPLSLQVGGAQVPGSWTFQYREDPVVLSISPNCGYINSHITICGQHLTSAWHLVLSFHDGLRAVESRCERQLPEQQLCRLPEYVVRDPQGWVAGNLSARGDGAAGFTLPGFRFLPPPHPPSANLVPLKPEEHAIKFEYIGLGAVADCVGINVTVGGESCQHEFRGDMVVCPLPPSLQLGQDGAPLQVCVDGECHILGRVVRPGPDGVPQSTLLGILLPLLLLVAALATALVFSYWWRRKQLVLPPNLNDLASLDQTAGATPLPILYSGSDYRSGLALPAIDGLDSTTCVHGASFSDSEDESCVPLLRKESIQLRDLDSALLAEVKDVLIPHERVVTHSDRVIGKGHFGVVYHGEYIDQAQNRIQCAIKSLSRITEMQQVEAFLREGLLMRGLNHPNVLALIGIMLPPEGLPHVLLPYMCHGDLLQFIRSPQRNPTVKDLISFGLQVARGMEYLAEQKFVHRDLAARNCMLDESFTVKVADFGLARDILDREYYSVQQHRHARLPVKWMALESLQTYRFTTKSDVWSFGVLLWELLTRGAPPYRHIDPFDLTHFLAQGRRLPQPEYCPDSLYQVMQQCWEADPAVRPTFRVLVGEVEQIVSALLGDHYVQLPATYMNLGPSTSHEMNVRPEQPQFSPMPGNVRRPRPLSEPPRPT
Sequence of Hepatocyte growth factor receptor (P08581 whole entry, the tested form may be a part): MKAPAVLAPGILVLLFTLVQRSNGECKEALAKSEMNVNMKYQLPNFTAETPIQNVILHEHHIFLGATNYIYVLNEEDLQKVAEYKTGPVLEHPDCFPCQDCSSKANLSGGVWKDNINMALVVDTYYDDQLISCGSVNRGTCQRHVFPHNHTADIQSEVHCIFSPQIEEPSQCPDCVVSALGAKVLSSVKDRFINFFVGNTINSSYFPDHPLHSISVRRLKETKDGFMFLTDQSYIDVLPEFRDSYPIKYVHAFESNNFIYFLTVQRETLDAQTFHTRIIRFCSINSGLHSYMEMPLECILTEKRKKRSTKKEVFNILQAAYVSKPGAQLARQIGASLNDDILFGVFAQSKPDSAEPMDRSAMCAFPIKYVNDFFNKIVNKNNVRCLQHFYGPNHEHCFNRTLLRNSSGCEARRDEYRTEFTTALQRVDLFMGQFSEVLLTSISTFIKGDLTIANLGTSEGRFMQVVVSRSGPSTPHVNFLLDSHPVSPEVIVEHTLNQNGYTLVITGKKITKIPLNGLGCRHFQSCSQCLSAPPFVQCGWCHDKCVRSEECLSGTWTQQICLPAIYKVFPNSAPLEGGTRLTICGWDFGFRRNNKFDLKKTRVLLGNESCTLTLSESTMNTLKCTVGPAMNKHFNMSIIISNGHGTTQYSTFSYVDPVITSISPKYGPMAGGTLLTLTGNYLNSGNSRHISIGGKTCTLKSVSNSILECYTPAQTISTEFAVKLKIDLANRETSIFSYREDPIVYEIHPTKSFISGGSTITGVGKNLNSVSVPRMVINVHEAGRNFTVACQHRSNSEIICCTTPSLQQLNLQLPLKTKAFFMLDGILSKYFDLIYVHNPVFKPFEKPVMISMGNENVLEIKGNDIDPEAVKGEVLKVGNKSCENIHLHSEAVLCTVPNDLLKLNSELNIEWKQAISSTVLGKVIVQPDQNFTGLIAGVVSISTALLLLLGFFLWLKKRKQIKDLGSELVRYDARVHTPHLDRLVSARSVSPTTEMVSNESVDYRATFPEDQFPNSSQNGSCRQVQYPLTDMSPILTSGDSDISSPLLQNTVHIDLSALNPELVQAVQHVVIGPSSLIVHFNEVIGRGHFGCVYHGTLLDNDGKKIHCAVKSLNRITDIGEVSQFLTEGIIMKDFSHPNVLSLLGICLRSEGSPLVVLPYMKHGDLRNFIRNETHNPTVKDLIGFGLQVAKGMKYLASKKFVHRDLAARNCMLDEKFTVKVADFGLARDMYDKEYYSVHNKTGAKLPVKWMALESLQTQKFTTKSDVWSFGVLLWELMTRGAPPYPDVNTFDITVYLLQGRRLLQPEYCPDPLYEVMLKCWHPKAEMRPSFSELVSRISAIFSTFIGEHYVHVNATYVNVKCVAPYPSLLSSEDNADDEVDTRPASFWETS

IC50 ([1]; mkn-45) | IC50 [2] [nM] | IC50 (A549) [nM] | IC50 (MDA-MB-231) [nM] | IC50 [1] [nM] | IC50 [3] [nM] | IC50 [4] [nM] | Structure (SMILES)
Not Active | – | – | – | – | – | – | Cn1cnc(-c2cc3nccc(Oc4ccc(NC(=O)c5ccn(-c6ccccc6)c5C(F)(F)F)cc4F)c3s2)c1
– | 12 | 100 | 100 | 6870 | 30 | 30 | Cn1cnc(-c2cc3nccc(Oc4ccc(NC(=O)c5cnn(-c6ccccc6)c5C(F)(F)F)cc4F)c3s2)c1
